Experimental data from US20150191469A1, “COMPOUNDS AND METHODS FOR TREATING HIV” (priority 2012, published 2015).

These compounds were tested on HIV (assay: MT4 assay: antiviral HIV activity (cell protection, cell titer glo readout at 96 hours)). Conditions: Human immunodeficiency virus 1, MT4, 96 h, MT4 cells, cell titer glo readout at 96 hours, 10 point dose response; read-out: HIV MT4 Assay IC50.
Assay type: cell-based
Outline: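 MT-4 cells infected with HIV, with inhibition readout by CellTiter-Glo luminescence at 96 h relative to no-compound control. Cytotoxicity measured in parallel under the same conditions. IC50 from a 10-point, 3-4-fold dilution series spanning >1000-fold, fitted with a four-parameter logistic equation.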
Compound `Cc1nc2c(cc(C(=O)N3CCN(C)CC3)n2C)c(-c2cc(F)c3c(c2C)CCCO3)c1[C@H](OC(C)(C)C)C(=O)O` [Example 173] has an IC50 of 354 nM.
`Cc1nc2c(cc(C(=O)N3CCc4ccccc4C3)n2C)c(-c2cc(F)c3c(c2C)CCCO3)c1[C@H](OC(C)(C)C)C(=O)O` [Example 174] gave an IC50 of 3.6 nM.
Compound `Cc1nc2c(cc(C(=O)N3CCC(c4ccc(C#N)cc4)CC3)n2C)c(-c2cc(F)c3c(c2C)CCCO3)c1[C@H](OC(C)(C)C)C(=O)O` [Example 175] has an IC50 of 4.8 nM.
`Cc1nc2c(cc(C(=O)N3CCC(C)CC3)n2C)c(-c2cc(F)c3c(c2C)CCCO3)c1[C@H](OC(C)(C)C)C(=O)O` [Example 176] showed an IC50 of 25.6 nM.
In the case of `Cc1nc2c(cc(C(=O)N3CCC(c4cccc(C#N)c4)CC3)n2C)c(-c2cc(F)c3c(c2C)CCCO3)c1[C@H](OC(C)(C)C)C(=O)O` [Example 177], the IC50 is reported as 4.7 nM.
In the case of `Cc1nc2c(cc(C(=O)N3CCC(c4ccc(C(N)=O)cc4)CC3)n2C)c(-c2cc(F)c3c(c2C)CCCO3)c1[C@H](OC(C)(C)C)C(=O)O` [Example 178], the IC50 is reported as 176 nM.
`Cc1nc2c(cc(C(=O)N3CCC[C@H]3C(=O)N(C)c3ccc4c(cnn4C)c3)n2C)c(-c2cc(F)c3c(c2C)CCCO3)c1[C@H](OC(C)(C)C)C(=O)O` [Example 179] was tested, and the IC50 was 847 nM.
`Cc1nc2c(cc(C(=O)N3CCN(S(C)(=O)=O)CC3)n2C)c(-c2cc(F)c3c(c2C)CCCO3)c1[C@H](OC(C)(C)C)C(=O)O` [Example 180] was tested, and the IC50 was 1920 nM.
With `Cc1nc2c(cc(C(=O)N3CCC(F)(F)CC3)n2C)c(-c2cc(F)c3c(c2C)CCCO3)c1[C@H](OC(C)(C)C)C(=O)O` [Example 181] the IC50 was 42 nM.
`Cc1nc2c(cc(C(=O)N3CCN4CCCC4C3)n2C)c(-c2cc(F)c3c(c2C)CCCO3)c1[C@H](OC(C)(C)C)C(=O)O` (some centres unmarked) [Example 182] showed an IC50 of 131 nM.
For `Cc1nc2c(cc(C(=O)N3CCc4ccccc43)n2C)c(-c2cc(F)c3c(c2C)CCCO3)c1[C@H](OC(C)(C)C)C(=O)O` [Example 183], the IC50 was 33.9 nM.
In the case of `Cc1nc2c(cc(C(=O)N3Cc4ccccc4C3)n2C)c(-c2cc(F)c3c(c2C)CCCO3)c1[C@H](OC(C)(C)C)C(=O)O` [Example 184], the IC50 is reported as 42 nM.
`Cc1nc2c(cc(-c3ccn(C4CN(C(=O)OC(C)(C)C)C4)n3)n2C)c(-c2cc(F)c3c(c2C)CCCO3)c1[C@H](OC(C)(C)C)C(=O)O` [Example 185] was tested, and the IC50 was 32.2 nM.
For `Cc1nc2c(cc(-c3cnn(CC4CN(C(=O)OC(C)(C)C)C4)c3)n2C)c(-c2cc(F)c3c(c2C)CCCO3)c1[C@H](OC(C)(C)C)C(=O)O` [Example 186], the IC50 was 41.1 nM.
`Cc1nc2c(cc(-c3ccn(C4CN(C5CCOCC5)C4)n3)n2C)c(-c2cc(F)c3c(c2C)CCCO3)c1[C@H](OC(C)(C)C)C(=O)O` [Example 187] showed an IC50 of 26.5 nM.
`Cc1nc2c(cc(C(=O)N3C[C@@H]4CC[C@H]3CN(C3COC3)C4)n2C)c(-c2cc(F)c3c(c2C)CCCO3)c1[C@H](OC(C)(C)C)C(=O)O` [Example 188] gave an IC50 of 86.7 nM.
Work on `Cc1nc2c(cc(C(=O)N3CC4CN(C5COC5)CC4C3)n2C)c(-c2cc(F)c3c(c2C)CCCO3)c1[C@H](OC(C)(C)C)C(=O)O` (some centres unmarked) [Example 189] yielded an IC50 of 1190 nM.
`Cc1nc2c(cc(C(=O)N[C@H](C)c3ccccc3)n2C)c(-c2cc(F)c3c(c2C)CCCO3)c1[C@H](OC(C)(C)C)C(=O)O` [Example 190] gave an IC50 of 14.1 nM.
In the case of `Cc1nc2c(cc(C(=O)N3CCC(c4c[nH]c5ccccc45)CC3)n2C)c(-c2cc(F)c3c(c2C)CCCO3)c1[C@H](OC(C)(C)C)C(=O)O` [Example 191], the IC50 is reported as 4.9 nM.
In the case of `Cc1nc2c(cc(C(=O)N(C)Cc3ccccc3)n2C)c(-c2cc(F)c3c(c2C)CCCO3)c1[C@H](OC(C)(C)C)C(=O)O` [Example 192], the IC50 is reported as 16.6 nM.
Work on `Cc1nc2c(cc(C(=O)N3CCC4(CCCC4)CC3)n2C)c(-c2cc(F)c3c(c2C)CCCO3)c1[C@H](OC(C)(C)C)C(=O)O` [Example 193] yielded an IC50 of 12.3 nM.
`Cc1nc2c(cc(C(=O)N3CC(c4ccccc4)C3)n2C)c(-c2cc(F)c3c(c2C)CCCO3)c1[C@H](OC(C)(C)C)C(=O)O` [Example 194] gave an IC50 of 1.5 nM.
Work on `Cc1nc2c(cc(C(=O)NC(C)(C)c3ccccc3)n2C)c(-c2cc(F)c3c(c2C)CCCO3)c1[C@H](OC(C)(C)C)C(=O)O` [Example 195] yielded an IC50 of 26 nM.
Compound `Cc1nc2c(cc(C(=O)N3CCN(C(C)c4ccccc4)CC3)n2C)c(-c2cc(F)c3c(c2C)CCCO3)c1[C@H](OC(C)(C)C)C(=O)O` (some centres unmarked) [Example 196] has an IC50 of 12.3 nM.
Compound `CC(=O)N1CCCN(C(=O)c2cc3c(-c4cc(F)c5c(c4C)CCCO5)c([C@H](OC(C)(C)C)C(=O)O)c(C)nc3n2C)CC1` [Example 197] has an IC50 of 6810 nM.
Compound `Cc1nc2c(cc(C(=O)N3CCN(C(=O)OCc4ccccc4)CC3)n2C)c(-c2cc(F)c3c(c2C)CCCO3)c1[C@H](OC(C)(C)C)C(=O)O` [Example 198] has an IC50 of 26.3 nM.
Work on `Cc1nc2c(cc(C(=O)N3CCN(c4ncccn4)CC3)n2C)c(-c2cc(F)c3c(c2C)CCCO3)c1[C@H](OC(C)(C)C)C(=O)O` [Example 199] yielded an IC50 of 27.6 nM.
Compound `Cc1nc2c(cc(C(=O)N3CCC4(CC3)CC(Cc3cccnc3)C(=O)O4)n2C)c(-c2cc(F)c3c(c2C)CCCO3)c1[C@H](OC(C)(C)C)C(=O)O` (some centres unmarked) [Example 200] has an IC50 of 8050 nM.
For `Cc1nc2c(cc(C(=O)N3CCN(C(=O)C4CCCCC4)CC3)n2C)c(-c2cc(F)c3c(c2C)CCCO3)c1[C@H](OC(C)(C)C)C(=O)O` [Example 201], the IC50 was 65.7 nM.
`Cc1nc2c(cc(C(=O)N(CCC(C)C)CCC(C)C)n2C)c(-c2cc(F)c3c(c2C)CCCO3)c1[C@H](OC(C)(C)C)C(=O)O` [Example 202] gave an IC50 of 92.8 nM.
In the case of `Cc1nc2c(cc(C(=O)N3CCN(CC(=O)N4CCCC4)CC3)n2C)c(-c2cc(F)c3c(c2C)CCCO3)c1[C@H](OC(C)(C)C)C(=O)O` [Example 203], the IC50 is reported as 6040 nM.
With `Cc1nc2c(cc(C(=O)N3CCN(CC(=O)N4CCOCC4)CC3)n2C)c(-c2cc(F)c3c(c2C)CCCO3)c1[C@H](OC(C)(C)C)C(=O)O` [Example 204] the IC50 was 11400 nM.
For `Cc1nc2c(cc(C(=O)N3CCOC(C)(C(=O)NC4CCCC4)C3)n2C)c(-c2cc(F)c3c(c2C)CCCO3)c1[C@H](OC(C)(C)C)C(=O)O` (some centres unmarked) [Example 205], the IC50 was 373 nM.
`Cc1nc2c(cc(C(=O)N3CCCN(c4nccs4)CC3)n2C)c(-c2cc(F)c3c(c2C)CCCO3)c1[C@H](OC(C)(C)C)C(=O)O` [Example 206] showed an IC50 of 126 nM.
`CCN(CC)C(=O)C1CCCN(C(=O)c2cc3c(-c4cc(F)c5c(c4C)CCCO5)c([C@H](OC(C)(C)C)C(=O)O)c(C)nc3n2C)C1` (some centres unmarked) [Example 207] was tested, and the IC50 was 311 nM.
`Cc1nc2c(cc(C(=O)N3CCN(c4nccs4)CC3)n2C)c(-c2cc(F)c3c(c2C)CCCO3)c1[C@H](OC(C)(C)C)C(=O)O` [Example 208] showed an IC50 of 39.6 nM.
`Cc1nc2c(cc(C(=O)NCc3ccccc3)n2C)c(-c2cc(F)c3c(c2C)CCCO3)c1[C@H](OC(C)(C)C)C(=O)O` [Example 209] gave an IC50 of 9.4 nM.
Work on `Cc1nc2c(cc(C(=O)N[C@@H](C)c3ccccc3)n2C)c(-c2cc(F)c3c(c2C)CCCO3)c1[C@H](OC(C)(C)C)C(=O)O` [Example 210] yielded an IC50 of 5 nM.
`Cc1cnc(CNC(=O)c2cc3c(-c4cc(F)c5c(c4C)CCCO5)c([C@H](OC(C)(C)C)C(=O)O)c(C)nc3n2C)cn1` [Example 211] showed an IC50 of 121 nM.
For `Cc1nc2c(cc(C(=O)NCCc3ccccc3)n2C)c(-c2cc(F)c3c(c2C)CCCO3)c1[C@H](OC(C)(C)C)C(=O)O` [Example 212], the IC50 was 28.8 nM.
In the case of `Cc1nc2c(cc(C(=O)NCCOc3ccccc3)n2C)c(-c2cc(F)c3c(c2C)CCCO3)c1[C@H](OC(C)(C)C)C(=O)O` [Example 213], the IC50 is reported as 3.9 nM.
With `Cc1nc2c(cc(C(=O)NC[C@H](C)c3ccccc3)n2C)c(-c2cc(F)c3c(c2C)CCCO3)c1[C@H](OC(C)(C)C)C(=O)O` [Example 214] the IC50 was 44.6 nM.
With `Cc1nc2c(cc(C(=O)NC[C@@H](C)c3ccccc3)n2C)c(-c2cc(F)c3c(c2C)CCCO3)c1[C@H](OC(C)(C)C)C(=O)O` [Example 215] the IC50 was 30 nM.
`COc1ccc([C@@H](C)NC(=O)c2cc3c(-c4cc(F)c5c(c4C)CCCO5)c([C@H](OC(C)(C)C)C(=O)O)c(C)nc3n2C)cc1` [Example 216] gave an IC50 of 41.3 nM.
Work on `CC(=O)NC1(c2ccccc2)CCN(C(=O)c2cc3c(-c4cc(F)c5c(c4C)CCCO5)c([C@H](OC(C)(C)C)C(=O)O)c(C)nc3n2C)CC1` [Example 217] yielded an IC50 of 3380 nM.
In the case of `CC1=NC2(CCN(C(=O)c3cc4c(-c5cc(F)c6c(c5C)CCCO6)c([C@H](OC(C)(C)C)C(=O)O)c(C)nc4n3C)CC2)N=C1c1ccccc1` [Example 218], the IC50 is reported as 47.3 nM.
In the case of `Cc1nc2c(cc(C(=O)N3CCN(CC(=O)N(C)c4ccccc4)CC3)n2C)c(-c2cc(F)c3c(c2C)CCCO3)c1[C@H](OC(C)(C)C)C(=O)O` [Example 219], the IC50 is reported as 807 nM.
For `Cc1nc2c(cc(C(=O)N3CCN(C(=O)N(C)C)CC3)n2C)c(-c2cc(F)c3c(c2C)CCCO3)c1[C@H](OC(C)(C)C)C(=O)O` [Example 220], the IC50 was 1770 nM.
For `Cc1nc2c(cc(C(=O)N3CCC4(CC3)C(=O)NC(=O)N4C)n2C)c(-c2cc(F)c3c(c2C)CCCO3)c1[C@H](OC(C)(C)C)C(=O)O` [Example 221], the IC50 was 17600 nM.
For `Cc1nc2c(cc(C(=O)N3[C@@H]4CC[C@H]3CC(N3CCOCC3)C4)n2C)c(-c2cc(F)c3c(c2C)CCCO3)c1[C@H](OC(C)(C)C)C(=O)O` (some centres unmarked) [Example 222], the IC50 was 376 nM.
For `Cc1nc2c(cc(C(=O)N3CCN(C4CCOCC4)C[C@H]3C)n2C)c(-c2cc(F)c3c(c2C)CCCO3)c1[C@H](OC(C)(C)C)C(=O)O` [Example 223], the IC50 was 121 nM.
`Cc1ccc(N2CCN(C(=O)c3cc4c(-c5cc(F)c6c(c5C)CCCO6)c([C@H](OC(C)(C)C)C(=O)O)c(C)nc4n3C)CC2)cc1` [Example 224] gave an IC50 of 41.4 nM.
Work on `Cc1nc2c(cc(C(=O)N3CCN(C4CCOCC4)CC3)n2C)c(-c2cc(F)c3c(c2C)CCCO3)c1[C@H](OC(C)(C)C)C(=O)O` [Example 225] yielded an IC50 of 436 nM.
Compound `Cc1nc2c(cc(C(=O)NCc3ccc(N(C)C)cc3)n2C)c(-c2cc(F)c3c(c2C)CCCO3)c1[C@H](OC(C)(C)C)C(=O)O` [Example 227] has an IC50 of 2.8 nM.
In the case of `CNC(=O)c1cc2c(-c3cc(F)c4c(c3C)CCCO4)c([C@H](OC(C)(C)C)C(=O)O)c(C)nc2n1C` [Example 228], the IC50 is reported as 136 nM.
In the case of `Cc1nc2c(cc(C(=O)NCC3CC3)n2C)c(-c2cc(F)c3c(c2C)CCCO3)c1[C@H](OC(C)(C)C)C(=O)O` [Example 229], the IC50 is reported as 12.2 nM.
